The target in one series is T1, recombinant TcPRODH (Trypanosoma cruzi, UniProt Q4CVA1).
T1 construct: gene Tc00.1047053506411.30; dimer (native gel of mitochondria, 140 kDa)
T1 sequence (Q4CVA1 17-566): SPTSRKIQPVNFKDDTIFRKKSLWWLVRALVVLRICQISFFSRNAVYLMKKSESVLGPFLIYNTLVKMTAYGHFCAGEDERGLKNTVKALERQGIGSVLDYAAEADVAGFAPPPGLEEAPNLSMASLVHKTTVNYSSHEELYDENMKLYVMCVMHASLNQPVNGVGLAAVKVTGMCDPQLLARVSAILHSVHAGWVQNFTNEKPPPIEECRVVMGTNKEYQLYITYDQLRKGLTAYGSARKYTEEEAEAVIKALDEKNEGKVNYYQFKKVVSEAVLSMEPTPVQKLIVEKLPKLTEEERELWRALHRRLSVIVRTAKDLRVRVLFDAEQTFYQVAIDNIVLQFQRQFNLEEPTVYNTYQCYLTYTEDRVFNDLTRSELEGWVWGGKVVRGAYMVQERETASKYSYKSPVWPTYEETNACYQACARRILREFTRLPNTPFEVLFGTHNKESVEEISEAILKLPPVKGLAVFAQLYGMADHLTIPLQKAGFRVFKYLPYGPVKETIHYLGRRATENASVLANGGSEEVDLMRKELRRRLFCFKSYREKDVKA
The series can be described thus: UV-visible spectrum of purified enzyme; cofactor dependence of activity. In kind it is biochemical. Particulars: flavin peaks at 370 and 450 nm; NAD+ and NADP+ not accepted.

Substrate in the series “purified protein”: O=C(O)[C@@H]1CCCN1
Briefly: purified protein. The conditions noted are these: DCPIP/phenazine methosulfate acceptor, MOPS, MgCl2, glycerol, pH 7.5, error printed as ±1.69 in text (b1).

This is an account of results in paper PMC3718742, “Proline Dehydrogenase Regulates Redox State and Respiratory Metabolism in Trypanosoma cruzi” (PLoS ONE, 2013).

Regarding `Cc1cc2nc3c(=O)[nH]c(=O)nc-3n(C[C@H](O)[C@H](O)[C@H](O)COP(=O)(O)OP(=O)(O)OC[C@H]3O[C@@H](n4cnc5c(N)ncnc54)[C@H](O)[C@@H]3O)c2cc1C` [FAD], the “UV-visible spectrum of purified enzyme; cofactor dependence of activity” value at recombinant TcPRODH was “purified enzyme had a typical flavoprotein absorbance spectrum, characterized by two flavin absorption peaks”.

B1: recombinant TcPRODH (Trypanosoma cruzi strain CL Brener) (protein)
chain: SPTSRKIQPVNFKDDTIFRKKSLWWLVRALVVLRICQISFFSRNAVYLMKKSESVLGPFLIYNTLVKMTAYGHFCAGEDERGLKNTVKALERQGIGSVLDYAAEADVAGFAPPPGLEEAPNLSMASLVHKTTVNYSSHEELYDENMKLYVMCVMHASLNQPVNGVGLAAVKVTGMCDPQLLARVSAILHSVHAGWVQNFTNEKPPPIEECRVVMGTNKEYQLYITYDQLRKGLTAYGSARKYTEEEAEAVIKALDEKNEGKVNYYQFKKVVSEAVLSMEPTPVQKLIVEKLPKLTEEERELWRALHRRLSVIVRTAKDLRVRVLFDAEQTFYQVAIDNIVLQFQRQFNLEEPTVYNTYQCYLTYTEDRVFNDLTRSELEGWVWGGKVVRGAYMVQERETASKYSYKSPVWPTYEETNACYQACARRILREFTRLPNTPFEVLFGTHNKESVEEISEAILKLPPVKGLAVFAQLYGMADHLTIPLQKAGFRVFKYLPYGPVKETIHYLGRRATENASVLANGGSEEVDLMRKELRRRLFCFKSYREKDVKA
Broadly, the Km is the substrate concentration at which the rate is half of its maximum. Turning to B1, in the series “purified protein”, the Km came out at 16.58 ± 6.08 µM.
